Reference: ChEMBL document CHEMBL3817774, “Pterostilbene-mediated Nrf2 activation: Mechanistic insights on Keap1:Nrf2 interface” (Bioorg Med Chem, 2016)

What was measured:
Assay type in all cases: cell-based
[1] = target: T1, Nuclear factor erythroid 2-related factor 2 (Mus musculus) (UniProt Q60795); assay: Activation of Nrf2 in mouse MIN6 cells assessed as upregulation of human NQO1-ARE-luciferase incubated for 8 hrs by luminometric assay relative to control
T1 sequence (whole entry): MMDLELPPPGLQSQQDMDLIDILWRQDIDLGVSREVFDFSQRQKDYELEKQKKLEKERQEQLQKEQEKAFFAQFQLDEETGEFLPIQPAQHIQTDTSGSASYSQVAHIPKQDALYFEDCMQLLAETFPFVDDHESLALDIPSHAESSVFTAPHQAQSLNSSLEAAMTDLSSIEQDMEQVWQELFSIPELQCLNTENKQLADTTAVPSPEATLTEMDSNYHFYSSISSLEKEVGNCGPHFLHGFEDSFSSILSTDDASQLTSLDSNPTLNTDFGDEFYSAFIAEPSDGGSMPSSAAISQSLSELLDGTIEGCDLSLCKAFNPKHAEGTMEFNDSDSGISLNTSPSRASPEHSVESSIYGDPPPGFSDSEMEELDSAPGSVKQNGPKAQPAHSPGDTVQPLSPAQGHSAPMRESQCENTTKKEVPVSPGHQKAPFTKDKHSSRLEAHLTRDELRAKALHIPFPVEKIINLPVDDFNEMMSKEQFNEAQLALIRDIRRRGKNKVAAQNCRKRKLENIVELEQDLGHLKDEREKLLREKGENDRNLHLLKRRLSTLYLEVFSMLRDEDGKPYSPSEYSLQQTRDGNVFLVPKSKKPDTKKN

[2] = target: T1, Nuclear factor erythroid 2-related factor 2 (Mus musculus); assay: Activation of Nrf2 in mouse MIN6 cells assessed as decrease in cytoplasmic Nrf2 fraction by Western blot analysis
[3] = target: T2, Keap1/Nrf2 (Homo sapiens) (UniProt Q16236+Q14145); assay: Inhibition of Nrf2-Keap1 (unknown origin) interaction co-expressed in HEK293T cells using D-luciferin as substrate assessed as decrease in luciferase signal intensity incubated for 24 hrs by bioluminescence-based IVIS imaging analysis; settings: HEK-293T
T2 sequence (Q14145 whole entry, looked up): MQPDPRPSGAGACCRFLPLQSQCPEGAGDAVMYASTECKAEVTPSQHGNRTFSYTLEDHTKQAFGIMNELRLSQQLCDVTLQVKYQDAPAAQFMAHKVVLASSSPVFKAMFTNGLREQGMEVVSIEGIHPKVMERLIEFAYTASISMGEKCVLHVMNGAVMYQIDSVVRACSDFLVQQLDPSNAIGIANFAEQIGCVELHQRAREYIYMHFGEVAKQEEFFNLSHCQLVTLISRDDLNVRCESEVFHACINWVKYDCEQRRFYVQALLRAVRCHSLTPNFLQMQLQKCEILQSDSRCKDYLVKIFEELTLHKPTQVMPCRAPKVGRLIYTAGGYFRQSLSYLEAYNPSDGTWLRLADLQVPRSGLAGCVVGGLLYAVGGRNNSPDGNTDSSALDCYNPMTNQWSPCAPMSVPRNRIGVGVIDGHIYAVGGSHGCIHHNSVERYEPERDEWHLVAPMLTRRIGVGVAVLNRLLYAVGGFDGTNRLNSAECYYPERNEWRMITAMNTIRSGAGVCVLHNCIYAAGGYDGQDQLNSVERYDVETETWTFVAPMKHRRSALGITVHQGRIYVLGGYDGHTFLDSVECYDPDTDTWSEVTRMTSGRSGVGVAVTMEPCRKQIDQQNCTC
T2 sequence (Q16236 whole entry, looked up): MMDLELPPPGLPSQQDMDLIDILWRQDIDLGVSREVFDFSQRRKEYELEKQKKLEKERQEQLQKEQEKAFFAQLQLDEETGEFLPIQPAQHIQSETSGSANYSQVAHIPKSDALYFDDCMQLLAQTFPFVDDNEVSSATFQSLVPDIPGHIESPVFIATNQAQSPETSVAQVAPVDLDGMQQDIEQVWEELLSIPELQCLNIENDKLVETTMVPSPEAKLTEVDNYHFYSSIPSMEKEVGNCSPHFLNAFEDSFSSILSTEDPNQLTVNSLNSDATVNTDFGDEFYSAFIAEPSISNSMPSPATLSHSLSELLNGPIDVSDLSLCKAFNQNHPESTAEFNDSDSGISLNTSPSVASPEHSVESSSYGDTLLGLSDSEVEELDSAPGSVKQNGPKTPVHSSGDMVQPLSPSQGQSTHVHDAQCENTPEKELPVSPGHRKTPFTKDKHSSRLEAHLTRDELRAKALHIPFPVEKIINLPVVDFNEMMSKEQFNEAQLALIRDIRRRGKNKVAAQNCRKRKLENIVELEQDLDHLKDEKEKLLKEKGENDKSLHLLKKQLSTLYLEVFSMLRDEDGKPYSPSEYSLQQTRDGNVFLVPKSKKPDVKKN

[4] = target: T1, Nuclear factor erythroid 2-related factor 2 (Mus musculus); assay: Activation of Nrf2 in mouse MIN6 cells assessed as upregulation of GST1-ARE-luciferase incubated for 8 hrs by luminometric assay relative to control
[5] = target: T2, Keap1/Nrf2 (Homo sapiens); assay: Inhibition of Nrf2-Keap1 (unknown origin) interaction co-expressed in HEK293T cells using D-luciferin as substrate assessed as decrease in luciferase signal intensity at 0.5 to 10 uM by bioluminescence-based IVIS imaging analysis; settings: HEK-293T, TDE = time-dependent effect
[6] = target: T1, Nuclear factor erythroid 2-related factor 2 (Mus musculus); assay: Activation of Nrf2 in mouse MIN6 cells assessed as increase in nuclear Nrf2 translocation by Western blot analysis

- Activity [1]: Dose-dependent effect
- fold change (FC) [1]: 2
- Activity [2]: Dose-dependent effect
- inhibition [3]: Dose-dependent effect
- Activity [4]: Dose-dependent effect
- fold change (FC) [4]: 2
- inhibition [5]: tde
- Activity [6]: Dose-dependent effect
SMILES: COc1cc(/C=C/c2ccc(O)cc2)cc(OC)c1
